Assay results: ChEMBL document CHEMBL6121045, “Effects of Heparan Sulfate Trisaccharide Containing Oleanolic Acid in Attenuating Hyperphosphorylated Tau-Induced Cell Dysfunction Associated with Alzheimer's Disease” (J Med Chem, 2025)
Activity calls are given as the source filed them. No cut-off for these calls is given here.

Tests used:
[1] = tested on: SH-SY5Y; test: Cytoprotective activity against p-tau-induced toxicity in human SH-SY5Y cells assessed as reduction in cell viability at 8 uM incubated for 12 hrs by CCK-8 assay relative to control; type: functional, cell-based
[2] = tested on: SH-SY5Y; test: Cytoprotective activity against p-tau-induced toxicity in human SH-SY5Y cells assessed as cell viability incubated for 12 hrs by CCK-8 assay; type: functional, cell-based
[3] = tested on: SH-SY5Y; test: Cytoprotective activity against p-tau-induced toxicity in human SH-SY5Y cells incubated for 24 hrs by TEM analysis; type: functional, cell-based
[4] = tested on: SH-SY5Y; test: Protective activity against p-tau induced ER-stress associated apoptosis in human SH-SY5Y cells assessed as reduction in ATF4 mRNA expression by qRT-PCR analysis; type: functional, cell-based
[5] = tested on: SH-SY5Y; test: Protective activity against p-tau induced UPR response in human SH-SY5Y cells assessed as reduction Bip mRNA expression at 5 uM by qRT-PCR analysis; type: functional, cell-based
[6] = tested on: SH-SY5Y; test: Protective activity against p-tau induced ER-stress in human SH-SY5Y cells assessed as reduction Bip mRNA expression at 5 uM by qRT-PCR analysis; type: functional, cell-based
[7] = tested on: SH-SY5Y; test: Protective activity against thapsigargin induced ER-stress in human SH-SY5Y cells assessed as reduction ATF4 mRNA expression at 5 uM incubated for 24 hrs by qRT-PCR analysis; type: functional, cell-based
[8] = tested on: SH-SY5Y; test: Antiinflammatory activity against p-tau-induced human SH-SY5Y cells assessed as reduction in IRF3 mRNA expression at 5 uM by qRT-PCR analysis; type: functional, cell-based
[9] = tested on: SH-SY5Y; test: Protective activity against p-tau induced ER-stress associated apoptosis in human SH-SY5Y cells assessed as reduction in GADD34 mRNA expression by qRT-PCR analysis; type: functional, cell-based
[10] = molecular target: T1, Platelet factor 4 (Homo sapiens, UniProt P02776); test: Binding affinity to human recombinant PF4 by Biolayer interferometry analysis
T1 sequence (P02776 whole entry): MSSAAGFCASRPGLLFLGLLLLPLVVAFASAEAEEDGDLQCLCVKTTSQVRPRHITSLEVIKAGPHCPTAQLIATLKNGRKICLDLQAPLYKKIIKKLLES

[11] = tested on: SH-SY5Y; test: Protective activity against tunicamycin induced ER-stress in human SH-SY5Y cells assessed as reduction Xbp1s mRNA expression at 5 uM incubated for 24 hrs by qRT-PCR analysis; type: functional, cell-based
[12] = tested on: SH-SY5Y; test: Protective activity against p-tau induced ER-stress associated apoptosis in human SH-SY5Y cells assessed as reduction in TRB3 mRNA expression by qRT-PCR analysis; type: functional, cell-based
[13] = tested on: SH-SY5Y; test: Antiinflammatory activity against p-tau-induced human SH-SY5Y cells assessed as reduction in IL1beta mRNA expression at 5 uM by qRT-PCR analysis; type: functional, cell-based
[14] = tested on: SH-SY5Y; test: Protective activity against p-tau induced UPR response in human SH-SY5Y cells assessed as reduction ERdj4 mRNA expression at 5 uM by qRT-PCR analysis; type: functional, cell-based
[15] = tested on: SH-SY5Y; test: Protective activity against p-tau induced ER-stress in human SH-SY5Y cells assessed as reduction spliced Xbp1 mRNA expression at 5 uM by qRT-PCR analysis; type: functional, cell-based
[16] = tested on: SH-SY5Y; test: Cytoprotective activity against p-tau-induced toxicity in human SH-SY5Y cells assessed as reduction in cell viability at 8 uM incubated for 12 hrs by CCK-8 assay; type: functional, cell-based
[17] = tested on: SH-SY5Y; test: Antiinflammatory activity against p-tau-induced human SH-SY5Y cells assessed as reduction in TNFalpha mRNA expression at 5 uM by qRT-PCR analysis; type: functional, cell-based
[18] = tested on: SH-SY5Y; test: Protective activity against thapsigargin induced ER-stress in human SH-SY5Y cells assessed as reduction Xbp1s mRNA expression at 5 uM incubated for 24 hrs by qRT-PCR analysis; type: functional, cell-based
[19] = tested on: SH-SY5Y; test: Protection against p-tau-induced morphological changes in human SH-SY5Y cells assessed as change in cell density at 5 uM incubated for 24 hrs by contrast microscopic analysis; type: functional, cell-based
[20] = tested on: SH-SY5Y; test: Protective activity against p-tau induced UPR response in human SH-SY5Y cells assessed as reduction spliced Xbp1 mRNA expression at 5 uM by qRT-PCR analysis; type: functional, cell-based
[21] = tested on: SH-SY5Y; test: Protective activity against p-tau induced ER-stress associated apoptosis in human SH-SY5Y cells assessed as reduction in CHOP mRNA expression by qRT-PCR analysis; type: functional, cell-based
[22] = tested on: SH-SY5Y; test: Protective activity against thapsigargin induced ER-stress in human SH-SY5Y cells assessed as reduction P58ipk mRNA expression at 5 uM incubated for 24 hrs by qRT-PCR analysis; type: functional, cell-based
[23] = tested on: SH-SY5Y; test: Protective activity against tunicamycin induced ER-stress in human SH-SY5Y cells assessed as reduction P58ipk mRNA expression at 5 uM incubated for 24 hrs by qRT-PCR analysis; type: functional, cell-based
[24] = tested on: SH-SY5Y; test: Protective activity against tunicamycin induced ER-stress in human SH-SY5Y cells assessed as reduction ATF4 mRNA expression at 5 uM incubated for 24 hrs by qRT-PCR analysis; type: functional, cell-based
[25] = tested on: SH-SY5Y; test: Cytoprotective activity against p-tau-induced toxicity in human SH-SY5Y cells assessed as cell death at 8 uM incubated for 12 hrs by CCK-8 assay; type: functional, cell-based
[26] = tested on: SH-SY5Y; test: Protective activity against p-tau induced ER-stress in human SH-SY5Y cells assessed as reduction ERdj4 mRNA expression at 5 uM by qRT-PCR analysis; type: functional, cell-based
[27] = molecular target: Microtubule-associated protein tau (Homo sapiens, UniProt P10636); test: Inhibition of BLI biosensor-immobilized heparin binding to p-tau hyperphosphorylation (unknown origin) by Biolayer interferometry analysis
Sequence of Microtubule-associated protein tau (P10636 whole entry): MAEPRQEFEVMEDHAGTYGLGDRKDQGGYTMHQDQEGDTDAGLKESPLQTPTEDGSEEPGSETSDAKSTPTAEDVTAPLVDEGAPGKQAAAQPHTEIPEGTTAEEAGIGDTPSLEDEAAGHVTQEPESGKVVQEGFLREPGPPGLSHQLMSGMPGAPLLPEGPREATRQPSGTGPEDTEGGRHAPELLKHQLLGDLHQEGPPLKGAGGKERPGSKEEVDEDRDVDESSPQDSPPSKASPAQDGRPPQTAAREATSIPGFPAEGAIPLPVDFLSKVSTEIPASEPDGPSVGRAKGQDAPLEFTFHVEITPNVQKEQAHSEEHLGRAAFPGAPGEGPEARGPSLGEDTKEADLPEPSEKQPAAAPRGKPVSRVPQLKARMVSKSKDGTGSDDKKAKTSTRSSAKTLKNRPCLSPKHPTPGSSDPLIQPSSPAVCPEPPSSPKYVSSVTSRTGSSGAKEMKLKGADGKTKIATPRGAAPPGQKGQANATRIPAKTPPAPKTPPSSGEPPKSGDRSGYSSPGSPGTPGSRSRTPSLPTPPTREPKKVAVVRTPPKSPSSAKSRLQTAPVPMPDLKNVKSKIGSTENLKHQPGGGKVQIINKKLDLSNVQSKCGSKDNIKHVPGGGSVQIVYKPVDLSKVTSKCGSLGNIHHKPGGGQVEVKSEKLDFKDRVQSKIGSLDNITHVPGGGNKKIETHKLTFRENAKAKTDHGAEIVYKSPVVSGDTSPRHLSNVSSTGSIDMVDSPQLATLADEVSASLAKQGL

[28] = tested on: SH-SY5Y; test: Protection against p-tau-induced morphological changes in human SH-SY5Y cells assessed as change in cell morphology at 5 uM incubated for 24 hrs by contrast microscopic analysis; type: functional, cell-based
[29] = tested on: SH-SY5Y; test: Cytoprotective activity against p-tau-induced toxicity in human SH-SY5Y cells assessed as reduction in cell viability at 0.3 uM incubated for 12 hrs by CCK-8 assay; type: functional, cell-based

Row | Compound | EC50 [2] [µM] | Activity [3] | Activity [4] | Activity [8] | Activity [9] | Activity [12] | Activity [13] | Activity [17] | Activity [21] | Activity [25] | further results
1 | COC(=O)[C@]12CCC(C)(C)C[C@H]1C1=CCC3[C@@]4(C)CC[C@H](O)C(C)(C)C4CC[C@@]3(C)C1(C)CC2 (some centres undefined) |  |  |  |  |  |  |  |  |  |  | Activity [1]: No effect
2 | CN1CCc2cccc3c2[C@H]1Cc1ccc(O)c(O)c1-3 [APOMORPHINE] | 2.9 | Active |  |  |  |  |  |  |  |  | 
3 | COC(=O)[C@]12CCC(C)(C)C[C@H]1C1=CCC3[C@@]4(C)CC[C@H](O[C@@H]5O[C@H](COS(=O)(=O)O)[C@@H](O[C@@H]6O[C@H](C(=O)O)[C@@H](O[C@H]7O[C@H](COS(=O)(=O)O)[C@@H](O)[C@H](O)[C@H]7NS(=O)(=O)O)[C@H](O)[C@H]6O)[C@H](O)[C@H]5NS(=O)(=O)O)C(C)(C)C4CC[C@@]3(C)C1(C)CC2 (some centres undefined) | 2.69 | Active | Active | Active | Active | Active | Active | Active | Active | inactive | Activity [5]: Active; Activity [6]: Active; Activity [7]: inactive; IC50 [10]: 21.8 µM; Activity [11]: inactive; Activity [14]: Active; Activity [15]: Active; Activity [16]: Active; Activity [18]: inactive; Activity [19]: Active; Activity [20]: Active; Activity [22]: inactive; Activity [23]: inactive; Activity [24]: inactive; Activity [26]: Active; IC50 [27]: 28.8 µM; Activity [28]: Active
4 | O=C(O)[C@H]1O[C@@H](O[C@H]2[C@H](O)[C@@H](NS(=O)(=O)O)[C@H](OCCNS(=O)(=O)O)O[C@@H]2COS(=O)(=O)O)[C@H](O)[C@@H](O)[C@@H]1O[C@H]1O[C@H](COS(=O)(=O)O)[C@@H](O)[C@H](O)[C@H]1NS(=O)(=O)O |  |  | inactive | inactive | inactive | inactive | inactive | inactive | inactive | inactive | Activity [29]: Moderate_effect
